Experimental data taken from patent publication US20170050966A1, “INHIBITING THE TRANSIENT RECEPTOR POTENTIAL A1 ION CHANNEL” (HYDRA BIOSCIENCES, INC., priority 2014, published 2017).

Columns and labels:
CYP2B6 = CYP2B6 (Homo sapiens, UniProt P20813); test: in vitro; conditions: probe Buproprion
CYP2D6 = CYP2D6 (Homo sapiens, UniProt P10635); test: in vitro
CYP2C19 = CYP2C19 (Homo sapiens, UniProt P33261); test: in vitro; conditions: probe Mephenytoin
CYP2C9 = CYP2C9 (Homo sapiens, UniProt P11712); test: in vitro
CYP1A2 = target: T1, CYP1A2 (Homo sapiens, UniProt P05177); test: CYP450 inhibition at 10 μM; format: biochemical; conditions: 1A2, substrate Phenacetin
T1 sequence (P05177 1-516): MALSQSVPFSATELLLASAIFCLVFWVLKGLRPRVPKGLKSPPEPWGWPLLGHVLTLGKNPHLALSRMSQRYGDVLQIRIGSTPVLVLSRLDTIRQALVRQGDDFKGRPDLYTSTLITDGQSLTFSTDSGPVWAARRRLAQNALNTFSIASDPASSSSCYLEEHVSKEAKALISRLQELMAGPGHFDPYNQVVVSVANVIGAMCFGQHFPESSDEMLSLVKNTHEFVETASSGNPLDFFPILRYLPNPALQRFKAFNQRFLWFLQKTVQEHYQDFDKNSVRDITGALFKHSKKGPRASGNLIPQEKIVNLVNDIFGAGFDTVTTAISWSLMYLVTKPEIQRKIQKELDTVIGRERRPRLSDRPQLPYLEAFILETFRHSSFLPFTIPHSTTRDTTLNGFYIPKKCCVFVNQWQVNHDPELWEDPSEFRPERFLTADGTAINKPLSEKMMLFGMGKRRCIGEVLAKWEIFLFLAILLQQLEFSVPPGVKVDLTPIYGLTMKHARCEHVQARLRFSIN

in vitro = conditions: plasma
Experimental: With this method, free compound is separated from protein-bound compound by dialysis across a semi-permeable membrane.
The protein binding was tested at a concentration of 1 μM. Pooled human, cynomolgus monkey, dog, and rat K2EDTA plasma was thawed and centrifuged at 2000×g for 10 minutes at 4° C. to remove particulates; any lipid on the top of the supernatant was also removed by aspiration. The plasma was warmed to 37° C. for 10 minutes before use. Test compounds were spiked into 2 ml plasma in a polypropylene plate to a final concentration of 1 μM. Triplicate 400 μl aliquots of spiked plasma were transferred into the Thermo RED dialysis units and dialyzed against 600 μl of PBS buffer. […] After 6 hours dialysis, triplicate 50 μl aliquots were removed from the RED plate, matrix-matched with either PBS buffer or blank plasma, as appropriate, and quenched with 4 volumes of ACN containing an internal standard. The extracted samples were then centrifuged at 2000×g for 5 minutes at 4° C. The supernatant (50 μl) was removed and diluted with 100 μl water prior to LC/MS/MS bioanalysis.

CYP2C8 = CYP2C8 (Homo sapiens, UniProt P10632); test: in vitro; conditions: probe Amodiaquine
Sequence of CYP2C8 (P10632 whole entry): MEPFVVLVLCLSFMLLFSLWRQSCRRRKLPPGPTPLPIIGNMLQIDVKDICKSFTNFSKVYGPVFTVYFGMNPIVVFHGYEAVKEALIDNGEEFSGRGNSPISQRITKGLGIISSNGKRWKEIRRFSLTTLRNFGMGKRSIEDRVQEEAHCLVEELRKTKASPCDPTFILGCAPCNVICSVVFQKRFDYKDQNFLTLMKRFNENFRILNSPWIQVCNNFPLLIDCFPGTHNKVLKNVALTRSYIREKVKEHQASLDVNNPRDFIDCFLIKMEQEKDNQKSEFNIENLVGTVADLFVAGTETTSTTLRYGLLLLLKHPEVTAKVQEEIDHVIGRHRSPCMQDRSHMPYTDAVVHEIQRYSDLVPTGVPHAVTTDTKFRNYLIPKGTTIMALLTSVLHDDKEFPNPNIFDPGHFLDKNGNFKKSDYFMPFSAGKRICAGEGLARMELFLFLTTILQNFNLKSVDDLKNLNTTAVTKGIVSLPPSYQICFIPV

Sequence of CYP2B6 (P20813 whole entry): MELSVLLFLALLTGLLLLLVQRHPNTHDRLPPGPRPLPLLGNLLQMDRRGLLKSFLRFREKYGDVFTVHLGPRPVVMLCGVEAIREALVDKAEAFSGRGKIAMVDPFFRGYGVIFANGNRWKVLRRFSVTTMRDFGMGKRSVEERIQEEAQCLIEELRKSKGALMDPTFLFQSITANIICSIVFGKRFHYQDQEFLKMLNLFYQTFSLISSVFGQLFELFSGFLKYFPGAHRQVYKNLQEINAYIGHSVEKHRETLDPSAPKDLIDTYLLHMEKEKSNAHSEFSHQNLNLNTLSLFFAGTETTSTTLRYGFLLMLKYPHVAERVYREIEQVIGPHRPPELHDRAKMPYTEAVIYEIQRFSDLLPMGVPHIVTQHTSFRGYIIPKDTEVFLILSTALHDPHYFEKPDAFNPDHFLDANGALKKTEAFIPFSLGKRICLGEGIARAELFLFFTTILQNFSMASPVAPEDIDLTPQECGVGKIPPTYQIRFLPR
Sequence of CYP2D6 (P10635 whole entry): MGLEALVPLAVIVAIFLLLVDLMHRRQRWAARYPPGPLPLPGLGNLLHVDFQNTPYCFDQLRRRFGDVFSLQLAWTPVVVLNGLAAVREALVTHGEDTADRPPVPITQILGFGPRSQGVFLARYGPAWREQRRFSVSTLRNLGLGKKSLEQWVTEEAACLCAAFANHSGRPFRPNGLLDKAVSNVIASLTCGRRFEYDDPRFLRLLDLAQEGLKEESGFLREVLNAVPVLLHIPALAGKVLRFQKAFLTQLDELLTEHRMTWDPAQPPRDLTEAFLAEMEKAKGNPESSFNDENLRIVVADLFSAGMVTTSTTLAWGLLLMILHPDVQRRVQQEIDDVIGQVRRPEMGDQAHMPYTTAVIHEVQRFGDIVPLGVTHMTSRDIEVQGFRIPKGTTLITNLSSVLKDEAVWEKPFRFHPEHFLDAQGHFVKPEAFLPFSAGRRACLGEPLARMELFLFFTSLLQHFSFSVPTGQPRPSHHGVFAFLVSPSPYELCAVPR
Sequence of CYP2C19 (P33261 whole entry): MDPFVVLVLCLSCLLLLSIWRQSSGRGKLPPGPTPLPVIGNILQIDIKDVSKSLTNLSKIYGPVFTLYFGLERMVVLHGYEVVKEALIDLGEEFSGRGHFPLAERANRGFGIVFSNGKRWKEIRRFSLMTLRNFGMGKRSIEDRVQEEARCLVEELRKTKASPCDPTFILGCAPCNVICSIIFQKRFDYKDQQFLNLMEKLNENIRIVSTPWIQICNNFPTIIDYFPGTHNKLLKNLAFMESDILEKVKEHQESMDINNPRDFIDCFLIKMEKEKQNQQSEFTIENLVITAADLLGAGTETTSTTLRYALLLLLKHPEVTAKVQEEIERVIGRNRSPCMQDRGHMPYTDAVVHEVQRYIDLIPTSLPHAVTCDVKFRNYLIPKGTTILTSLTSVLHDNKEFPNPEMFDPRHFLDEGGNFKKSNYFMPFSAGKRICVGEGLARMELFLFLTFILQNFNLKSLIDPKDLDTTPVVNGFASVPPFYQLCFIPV
Sequence of CYP2C9 (P11712 whole entry): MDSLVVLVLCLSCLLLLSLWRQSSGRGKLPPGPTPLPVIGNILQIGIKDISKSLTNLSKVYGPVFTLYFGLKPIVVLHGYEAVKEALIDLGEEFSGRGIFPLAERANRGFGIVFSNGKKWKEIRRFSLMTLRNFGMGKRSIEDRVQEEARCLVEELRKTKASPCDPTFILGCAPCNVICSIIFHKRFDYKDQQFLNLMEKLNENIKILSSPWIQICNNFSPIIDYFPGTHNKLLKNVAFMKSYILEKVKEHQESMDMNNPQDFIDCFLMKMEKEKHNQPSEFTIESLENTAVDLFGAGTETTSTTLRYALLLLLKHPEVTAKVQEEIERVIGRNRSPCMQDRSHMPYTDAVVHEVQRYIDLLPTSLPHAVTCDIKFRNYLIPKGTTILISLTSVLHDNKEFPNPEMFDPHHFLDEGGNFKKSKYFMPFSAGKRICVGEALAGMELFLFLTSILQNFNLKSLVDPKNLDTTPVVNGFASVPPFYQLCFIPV

For `Clc1ccccc1CN1CCc2sccc2C1` [Ticlopidine, reference compound], the inhibition at 10 µM (CYP2B6) was 98.2%.
For `C=C[C@H]1C[N@@]2CC[C@H]1C[C@@H]2[C@@H](O)c1ccnc2ccc(OC)cc12` [Quinidine, reference compound], the inhibition at 1 μM (CYP2D6) was 55.8%.
`COc1ccc2[nH]c([S+]([O-])Cc3ncc(C)c(OC)c3C)nc2c1` (centres unmarked) [Omeprazole, reference compound] showed an inhibition at 10 µM (CYP2C19) of 68.2%.
With `Nc1ccc(S(=O)(=O)Nc2ccnn2-c2ccccc2)cc1` [Sulfaphenazole, reference compound] the inhibition at 10 µM (CYP2C9) was 95.3%.
`COCCCC/C(=N\OCCN)c1ccc(C(F)(F)F)cc1` [Fluvoxamine, reference compound] showed an inhibition at 10 µM (CYP1A2) of 96.6%.
`CC(=O)CC(c1ccccc1)c1c(O)c2ccccc2oc1=O` (centres unmarked) [Warfarin, reference compound] gave a fraction unbound at 6 h, 1 μM (in vitro; beagle, dog) of 0.065 and a fraction unbound at 6 h, 1 μM (in vitro; cynomolgus monkey) of 0.011.
`O=c1c(O)c(-c2ccc(O)c(O)c2)oc2cc(O)cc(O)c12` [Quercetin, reference compound] gave an inhibition at 10 µM (CYP2C8) of 61.5%.
